Results from ChEMBL document CHEMBL2086285, “Targeting the liver stage of malaria parasites: a yet unmet goal” (J Med Chem, 2012).

What was measured:
Plasmodium cynomolgi = experiment: Antimalarial activity against liver stages of Plasmodium cynomolgi infected in human HepG2 cells assessed as growth inhibition of hepatic parasite after 3 days; type: functional, organism-based; conditions: 72 h
Plasmodium yoelii [1] = experiment: Antimalarial activity against liver stages of Plasmodium yoelii assessed as inhibition of cytochrome bc1 complex; type: functional, organism-based
Plasmodium yoelii [2] = experiment: Antimalarial activity against liver stages of Plasmodium yoelii infected in mouse assessed as protection against parasitic infection at 50 mg/kg, po after 7 days; type: functional
Plasmodium falciparum [3] = experiment: Antimalarial activity against liver stages of Plasmodium falciparum NF54 infected in human hepatocytes assessed as growth inhibition of hepatic parasite after 5 days by fluorescence microscopy; type: functional, organism-based; conditions: NF54, Hepatocyte, 120 h
Plasmodium yoelii [4] = experiment: Antimalarial activity against liver stages of Plasmodium yoelii 17XNL infected in Swiss Webster mouse assessed as reduction in liver parasite load at 25 mg/kg, po co-administered with 12.5 mg/kg ritonavir incubated for 6 hrs prior to sporozoite inoculation measured after 18 hrs; type: functional; set-up: scale not given: the % may be the effect or the level left
Plasmodium berghei [5] = experiment: Antimalarial activity against liver stages of Plasmodium berghei […] infected in human Hepa1-6 cells assessed as reduction in liver parasite load at 10 uM/L incubated for 1 hr prior to sporozoite inoculation measured after 46 to 48 hrs by fluorescence microscope; type: functional; set-up: scale not given: the % may be the effect or the level left
Plasmodium yoelii [6] = experiment: Antimalarial activity against liver stages of Plasmodium yoelii 17XNL infected in Swiss Webster mouse assessed as reduction in liver parasite load at 100 mg/kg, po co-administered with 50 mg/kg ritonavir incubated for 6 hrs prior to sporozoite inoculation measured after 18 hrs; type: functional; set-up: scale not given: the % may be the effect or the level left
Plasmodium yoelii [7] = experiment: Antimalarial activity against Plasmodium yoelii infected in mouse assessed as protection against parasitic infection at 5 mg/kg, po; type: functional
Plasmodium yoelii yoelii [8] = experiment: Antimalarial activity against liver stages of Plasmodium yoelii yoelii in mouse hepatocytes assessed as growth inhibition; type: functional, organism-based; conditions: Hepatocyte
Plasmodium falciparum [9] = experiment: Antimalarial activity against liver stages of Plasmodium falciparum NF54 in mouse after 72 to 120 hrs by immunofluorescence assay; type: functional, organism-based
Plasmodium yoelii yoelii [10] = experiment: Antimalarial activity against liver stages of Plasmodium yoelii yoelii 265 BY infected in mouse after 48 hrs by immunofluorescence assay; type: functional, organism-based
Plasmodium berghei [11] = experiment: Antimalarial activity against liver stages of Plasmodium berghei in human HepG2 cells assessed as inhibition of exoerythrocytic development at 1.85 nM administered 3 hrs after sporozite invasion measured after 48 hrs; type: functional
Plasmodium berghei [12] = experiment: Antimalarial activity against liver stages of Plasmodium berghei assessed as inhibition of cytochrome bc1 complex; type: functional, organism-based
Plasmodium falciparum [13] = experiment: Antimalarial activity against liver stages of Plasmodium falciparum NF54 infected in human HepG2-A16 cells expressing CD81 assessed as growth inhibition of hepatic parasite after 5 days by fluorescence microscopy; type: functional, organism-based; conditions: NF54, HepG2A16, Liver, 120 h
Plasmodium berghei [14] = experiment: Antimalarial activity against liver stages of Plasmodium berghei; type: functional, organism-based
Plasmodium berghei [15] = experiment: Antimalarial activity against Plasmodium berghei ANKA expressing GFP infected in C57BL/6 mouse assessed as reduction of liver infection at 200 mg/kg, po incubated for 6 hrs prior to sporozoite inoculation measured after 40 hrs by qRT PCR; set-up: scale not given: the % may be the effect or the level left
Plasmodium yoelii [16] = experiment: Antimalarial activity against Plasmodium yoelii infected in mouse assessed as protection against parasitic infection at 160 mg/kg, po; type: functional
Plasmodium yoelii [17] = experiment: Antimalarial activity against Plasmodium yoelii infected in po dosed mouse assessed as minimum dose required to protection against 100% parasitic infection; type: functional; conditions: read-out: MED
Plasmodium berghei [18] = experiment: Antimalarial activity against liver stages of Plasmodium berghei assessed as human HepG2 cells assessed as inhibition of hepatic parasite growth after invasion of hepatocytes incubated for 48 hrs followed by compound wash out measured after 2 days by RT-PCR analysis; type: functional, organism-based
Plasmodium berghei [19] = experiment: Antimalarial activity against Plasmodium berghei infected in […] 1-6 cells assessed as inhibition of host cell sporozoite invasion at 10 uM preincubated for 10 mins measured after 1 hr; type: functional; conditions: Hepa1-6
Plasmodium yoelii [20] = experiment: Antimalarial activity against liver stages of Plasmodium yoelii 17XNL expressing GFP infected in human HepG2 cells transfected with CD81 assessed as growth inhibition of hepatic parasite after 40 hrs by flow cytometry; type: functional, organism-based
Plasmodium berghei [21] = experiment: Antimalarial activity against liver stages of Plasmodium berghei infected in human HepG2 cells assessed as growth inhibition of hepatic parasite before invasion of hepatocytes incubated for 48 hrs followed by compound wash out measured after 3 days by RT-PCR analysis; type: functional, organism-based
Plasmodium berghei [22] = experiment: Antimalarial activity against Plasmodium berghei ANKA infected in human Huh7 cells after 24 hrs by qRT-PCR; type: functional, organism-based; conditions: Huh-7, 24 h
Plasmodium berghei [23] = experiment: Antimalarial activity against Plasmodium berghei ANKA infected in C57BL/6 mouse assessed as increase in resistance of mouse to cerebral malaria at 10 mg/kg, ip; type: functional; conditions: route intraperitoneal
Plasmodium yoelii [24] = experiment: Antimalarial activity against liver stages of Plasmodium yoelii after 96 hrs; type: functional, organism-based
Plasmodium yoelii [25] = experiment: Antimalarial activity against liver stages of Plasmodium yoelii after 96 hrs

Question: With `CCc1nc(N)nc(N)c1-c1ccc(Cl)cc1` [PYRIMETHAMINE] as the compound, how does the IC50 (Plasmodium cynomolgi) read?
Answer: 1.03 µM

Question: Which IC50 (Plasmodium yoelii [1]) does the source give for `CCCCCCCCCCOc1cc2c(O)c(C(=O)OCC)cnc2cc1OCC` [DECOQUINATE] here?
Answer: 0.000177 µM

Question: What about the Activity (Plasmodium yoelii [2]) of the same compound?
Answer: 80%

Question: For `COC1=C2[C@H]3NCC[C@]2(C[C@H](O)[C@@H]1O)c1c(ccc(OC)c1O)[C@H]3O` [TAZOPSINE], which IC50 (Plasmodium falciparum [3]) is on record?
Answer: 4.2 µM

Question: What does the source list for `Cc1cccc(C)c1OCC(=O)N[C@@H](Cc1ccccc1)[C@@H](O)C[C@H](Cc1ccccc1)NC(=O)[C@H](C(C)C)N1CCCNC1=O` [LOPINAVIR]?
Answer: Activity (Plasmodium yoelii [4]): 45%; Activity (Plasmodium berghei [5]): 38%; Activity (Plasmodium yoelii [6]): 93%

Question: Which Activity (Plasmodium yoelii [7]) does the source give for `CC(C)COC(=O)N/C(=N/C(C)C)NC1=NC(=O)C(=O)N1c1ccc(Cl)c(Cl)c1` here?
Answer: 100%

Question: With `NCCCCN(CCCN)C(=O)CCCCCCCCCCCOCc1ccc2c(c1)[C@@H]1C[C@]3(CCCCO3)NC3=N[C@]4(CCCCO4)C[C@H]2N31` as the compound, how does the IC50 (Plasmodium yoelii yoelii [8]) read?
Answer: 9.2 µM

Question: For `Cc1c(F)c(N2CCNC(C)C2)cc2c1c(=O)c(C(=O)O)cn2C1CC1` (stereo unspecified) [GREPAFLOXACIN], which IC50 (Plasmodium falciparum [9]) is on record?
Answer: 10 µM

Question: And the IC50 (Plasmodium yoelii yoelii [10])?
Answer: 10 µM

Question: `O=C1C(O)=C([C@H]2CC[C@H](c3ccc(Cl)cc3)CC2)C(=O)c2ccccc21` [ATOVAQUONE] was tested. Which inhibition in vivo at 0.00185 µM (Plasmodium berghei [11]) did it give?
Answer: 50%

Question: What about the IC50 (Plasmodium berghei [12]) of the same compound?
Answer: 0.0197 µM

Question: What about the IC50 (Plasmodium falciparum [13]) of the same compound?
Answer: 0.00395 µM

Question: For `O=c1c(-c2ccc(O)cc2)coc2cc(O)cc(O)c12` [GENISTEIN], which IC50 (Plasmodium berghei [14]) is on record?
Answer: 20 µM

Question: And the Activity (Plasmodium berghei [15])?
Answer: 64%

Question: Which Activity (Plasmodium yoelii [16]) does the source give for `CC(C)COC(=O)/N=C(\NC1=NC(=O)C(=O)N1C(C)C)Nc1ccc(Cl)c(Cl)c1` here?
Answer: 100%

Question: And the minimal effective dose (Plasmodium yoelii [17])?
Answer: 40 mg/kg

Question: With `C=CCS[S+]([O-])CC=C` (stereo unspecified) [ALLICIN] as the compound, how does the IC50 (Plasmodium berghei [18]) read?
Answer: 39.4 µM

Question: What about the inhibition at 10 µM (Plasmodium berghei [19]) of the same compound?
Answer: 37%

Question: And the IC50 (Plasmodium yoelii [20])?
Answer: 40 µM

Question: And the IC50 (Plasmodium berghei [21])?
Answer: 6.8 µM

Question: How did the IC50 (Plasmodium berghei [22]) turn out when `C[C@H](NC(=O)[C@@H](O)c1cc(F)cc(F)c1)C(=O)N[C@@H]1C(=O)N(C)c2ccccc2-c2ccccc21` was run?
Answer: 80 µM

Question: And the Activity (Plasmodium berghei [23])?
Answer: 55%

Question: Which INH (Plasmodium yoelii [24]) does the source give for `C[C@@H](CN1CC(=O)NC(=O)C1)N1CC(=O)NC(=O)C1` [DEXRAZOXANE] here?
Answer: 50 µM

Question: And the INH (Plasmodium yoelii [25])?
Answer: 50 µM
